Experimental data as given in patent US20250311722A1, “IMPROVED BIOCIDE” (Purgos ApS, priority 2022, published 2025).
Several values for one entry are separate records, joined by “and”; a condition that tells them apart may be missing. Equal entries are not always repeated.

Legend:
[1] = tested on: Coriolus versicolor. CTB 863 A; assay: EN 113 test against wood destroying basidiomycetes; type: cell-based; conditions: for Corrected mass loss, Mean / Mass loss, Mean: mean of blocks; for Corrected mass loss / Mass loss: single blocks
Description: EN 113, 2020: Durability of wood and wood-based products-Test method against wood destroying basidiomycetes. Assessment of biocidal efficacy of wood preservatives. […] The impregnation process was carried out on 24-03-2021 with the following conditions: Pre-vacuum at 0.1 bar for 30 minutes. Pressure of 13 bars for 60 minutes. Beech (Fagus sylvatica L.) for white rot fungi (Coriolus versicolor) with an average density 725 kg/m3. 4 weeks according to EN 113 at 65% RH and 20° C. until stable mass was obtained. Ionising radiation (2× 25 kGy).

bacteria [2] = assay: PVB dispersion treated with NBDA: microbial contamination by cATP (LuminUltra); type: cell-based; design: bacteria count: unit not given here
rat [3] = assay: LD50 (rat, oral); type: in vivo; conditions: extrapolated from rat LD50 4250 mg/kg
rat [4] = conditions: cited from earlier work
[5] = tested on: Gloeophyllum trabeum. BAM Ebw. 109; assay: EN 113 test against wood destroying basidiomycetes; type: cell-based; conditions: for Corrected mass loss / Mass loss: single blocks; for Corrected mass loss, Mean / Mass loss, Mean: mean of blocks
Excerpt: (§1) EN 113, 2020: Durability of wood and wood-based products-Test method against wood destroying basidiomycetes. Assessment of biocidal efficacy of wood preservatives.
(§2) Assessment of the results shown in table XIV.: The protection provided for the wood by the test preservative at the given concentration is deemed to be adequate if: • a) the corrected mean loss is less than 3.0% (m/m) • b) not more than one specimen has suffered a loss in mass greater than 3.0% (m/m) but less than 5.0% (m/m)
(§3) The impregnation process was carried out on 24-03-2021 with the following conditions:
(§4) Pre-vacuum at 0.1 bar for 30 minutes.
(§5) Pressure of 13 bars for 60 minutes.
(§6) Scots pine sapwood (Pinus sylvestris L.) for brown rot fungi with an average density of 589 kg/m3.
(§7) 4 weeks according to EN 113 at 65% RH and 20° C. until stable mass was obtained.
(§8) Ionising radiation (2× 25 kGy).

Poria placenta. FPRL 280 = assay: EN 113 test against wood destroying basidiomycetes; type: cell-based; conditions: for Corrected mass loss / Mass loss: single blocks
Excerpt: as §1, §2, §3, §4, §5, §6, §7, §8

bacteria [6] = assay: Tap water and polluted water treated with NDBA: bacteria count and BSI; type: cell-based; conditions: 300 grams water, 32° C.
[7] = 10% N-BDA in water; cited from earlier work
Vaccinia = assay: ASTM E1052 Kill Time Screen test, antiviral activity; type: cell-based
[8] = 0.50% NBDA, 25° C.(RT), after 1 mo
[9] = 0.50% NBDA, 25° C.(RT), after 1 wk
[10] = 0.50% NBDA, 25° C.(RT), after 3 mo
[11] = 0.50% NBDA, 25° C.(RT), after 6 mo
[12] = 0.50% NBDA, 25° C.(RT), after 1 d
[13] = 1.00% NBDA, 25° C.(RT), after 1 mo
[14] = 1.00% NBDA, 25° C.(RT), after 1 wk
[15] = 1.00% NBDA, 25° C.(RT), after 3 mo
[16] = 1.00% NBDA, 25° C.(RT), after 6 mo
[17] = 1.00% NBDA, 25° C.(RT), after 1 d
[18] = concentrations of 0.36%, 0.51%, 0.72%, 1.01% and 1.43%

SMILES: CCCCN(CCO)CCO [NBDA, N-butyldiethanolamine]
- Toxic value, Retention of product ([1]; Beech): >15.40 kg/m^3
- Toxic value, Solution conc. ([1]; Beech): >2.20 % w/w
- Corrected mass loss, Mean ([1]; solution conc. 0.55 % w/w): 26.8%
- Mass loss, Mean ([1]; solution conc. 0.55 % w/w): 26.8%
- Corrected mass loss ([1]; solution conc. 0.55 % w/w): 32.3% and 27.5% and 25.6% and 21.8%
- Mass loss ([1]; solution conc. 0.55 % w/w): 32.3% and 27.5% and 25.6% and 21.8%
- Corrected mass loss, Mean ([1]; solution conc. 0.78 % w/w): 31.8%
- Mass loss, Mean ([1]; solution conc. 0.78 % w/w): 31.7%
- Corrected mass loss ([1]; solution conc. 0.78 % w/w): 26.0% and 25.1% and 31.3% and 44.7%
- Mass loss ([1]; solution conc. 0.78 % w/w): 25.9% and 25.0% and 31.2% and 44.6%
- Corrected mass loss, Mean ([1]; solution conc. 1.09 % w/w): 31.2%
- Mass loss, Mean ([1]; solution conc. 1.09 % w/w): 30.9%
- Corrected mass loss ([1]; solution conc. 1.09 % w/w): 30.5% and 29.8% and 29.4% and 34.9%
- Mass loss ([1]; solution conc. 1.09 % w/w): 30.2% and 29.5% and 29.2% and 34.6%
- Corrected mass loss, Mean ([1]; solution conc. 1.55 % w/w): 28.3%
- Mass loss, Mean ([1]; solution conc. 1.55 % w/w): 27.4%
- Corrected mass loss ([1]; solution conc. 1.55 % w/w): 28.6% and 26.8% and 27.3% and 30.3%
- Mass loss ([1]; solution conc. 1.55 % w/w): 27.8% and 25.9% and 26.4% and 29.5%
- Corrected mass loss, Mean ([1]; solution conc. 2.20 % w/w): 25.7%
- Mass loss, Mean ([1]; solution conc. 2.20 % w/w): 24.1%
- BSI (bacteria [2]; [8]): 13
- bacteria count (bacteria [2]; [8]): 34.8
- pH (bacteria [2]; [8]): 9.73
- BSI (bacteria [2]; [9]): 17
- bacteria count (bacteria [2]; [9]): 147
- pH (bacteria [2]; [9]): 9.65
- BSI (bacteria [2]; [10]): 67
- bacteria count (bacteria [2]; [10]): 22.7
- pH (bacteria [2]; [10]): 9.62
- BSI (bacteria [2]; [11]): 50
- bacteria count (bacteria [2]; [11]): 5.77
- pH (bacteria [2]; [11]): 9.58
- BSI (bacteria [2]; [12]): 4
- bacteria count (bacteria [2]; [12]): 2930
- pH (bacteria [2]; [12]): 9.77
- bacteria count (bacteria [2]; 0.50% NBDA, 32° C., after 1 mo): 9.47
- bacteria count (bacteria [2]; 0.50% NBDA, 32° C., after 1 wk): 81
- bacteria count (bacteria [2]; 0.50% NBDA, 32° C., after 3 mo): 5.66
- bacteria count (bacteria [2]; 0.50% NBDA, 32° C., after 1 d): 215
- bacteria count (bacteria [2]; 0.50% NBDA, 60° C., after 1 mo): 126
- bacteria count (bacteria [2]; 0.50% NBDA, 60° C., after 1 wk): 276
- bacteria count (bacteria [2]; 0.50% NBDA, 60° C., after 3 mo): 4.2
- bacteria count (bacteria [2]; 0.50% NBDA, 60° C., after 1 d): 420
- BSI (bacteria [2]; [13]): 10
- bacteria count (bacteria [2]; [13]): 39.1
- pH (bacteria [2]; [13]): 9.86
- BSI (bacteria [2]; [14]): 24
- bacteria count (bacteria [2]; [14]): 183
- pH (bacteria [2]; [14]): 9.89
- BSI (bacteria [2]; [15]): 60
- bacteria count (bacteria [2]; [15]): 3.77
- pH (bacteria [2]; [15]): 9.93
- BSI (bacteria [2]; [16]): 83
- bacteria count (bacteria [2]; [16]): 1.36
- pH (bacteria [2]; [16]): 9.67
- BSI (bacteria [2]; [17]): 6
- bacteria count (bacteria [2]; [17]): 1530
- pH (bacteria [2]; [17]): 10.2
- bacteria count (bacteria [2]; 1.00% NBDA, 32° C., after 1 mo): 17.9
- bacteria count (bacteria [2]; 1.00% NBDA, 32° C., after 1 wk): 13.5
- bacteria count (bacteria [2]; 1.00% NBDA, 32° C., after 3 mo): 0.94
- bacteria count (bacteria [2]; 1.00% NBDA, 32° C., after 1 d): 338
- bacteria count (bacteria [2]; 1.00% NBDA, 60° C., after 1 mo): 202
- bacteria count (bacteria [2]; 1.00% NBDA, 60° C., after 1 wk): 387
- bacteria count (bacteria [2]; 1.00% NBDA, 60° C., after 3 mo): 9.3
- bacteria count (bacteria [2]; 1.00% NBDA, 60° C., after 1 d): 244
- effectiveness as sole biocide additive (bacteria [2]; concentration 0.5%, long term, RT, 32° C. and 60° C.): highly effective as the sole biocide additive
- human consummation equivalent to LD50 (rat [3]): 319 gram pr 75 kg
- LD50 (rat, oral) (rat [4]): 4250 mg/kg
- Toxic value, Retention of product ([5]; Scots pine sapwood): 6.85-10.03 kg/m^3
- Toxic value, Solution conc. ([5]; Scots pine sapwood): 1.01-1.43 % w/w
- fungicide for preventing wood destruction [5, 18]: effective as a fungicide
- Corrected mass loss ([5]; solution conc. 0.36% w/w): 44.8% and 30.6% and 32.5% and 33.8%
- Mass loss ([5]; solution conc. 0.36% w/w): 45.0% and 30.8% and 32.7% and 34.0%
- Corrected mass loss, Mean ([5]; solution conc. 0.36 % w/w): 35.4%
- Mass loss, Mean ([5]; solution conc. 0.36 % w/w): 35.6%
- Corrected mass loss ([5]; solution conc. 0.51% w/w): 34.8% and 29.4% and 36.4% and 31.1%
- Mass loss ([5]; solution conc. 0.51% w/w): 35.0% and 29.6% and 36.6% and 31.3%
- Corrected mass loss, Mean ([5]; solution conc. 0.51 % w/w): 32.9%
- Mass loss, Mean ([5]; solution conc. 0.51 % w/w): 33.1%
- Corrected mass loss ([5]; solution conc. 0.72% w/w): 30.9% and 33.1% and 34.2% and 26.5%
- Mass loss ([5]; solution conc. 0.72% w/w): 30.6% and 32.7% and 33.8% and 26.1%
- Corrected mass loss, Mean ([5]; solution conc. 0.72 % w/w): 31.2%
- Mass loss, Mean ([5]; solution conc. 0.72 % w/w): 30.8%
- Corrected mass loss, Mean ([5]; solution conc. 1.01 % w/w): 11.4%
- Mass loss, Mean ([5]; solution conc. 1.01 % w/w): 11.0%
- Corrected mass loss ([5]; solution conc. 1.43% w/w): 0.7% and 0.3% and 2.0%
- Mass loss ([5]; solution conc. 1.43% w/w): −0.4% and −0.8% and 1.0% and 0.9%
- Corrected mass loss, Mean ([5]; solution conc. 1.43 % w/w): 1.3%
- Mass loss, Mean ([5]; solution conc. 1.43 % w/w): 0.2%
- Toxic value, Retention of product (Poria placenta. FPRL 280; Scots pine sapwood): 4.87-7.02 kg/m^3
- Toxic value, Solution conc. (Poria placenta. FPRL 280; Scots pine sapwood): 0.72-1.01 % w/w
- fungicide for preventing wood destruction (Poria placenta. FPRL 280; [18]): effective as a fungicide
- Corrected mass loss, Mean (Poria placenta. FPRL 280; solution conc. 0.36% w/w): 14.2%
- Mass loss, Mean (Poria placenta. FPRL 280; solution conc. 0.36% w/w): 14.4%
- Corrected mass loss (Poria placenta. FPRL 280; solution conc. 0.36% w/w): 14.0% and 19.2% and 11.4% and 12.3%
- Mass loss (Poria placenta. FPRL 280; solution conc. 0.36% w/w): 14.2% and 19.4% and 11.6% and 12.5%
- Corrected mass loss, Mean (Poria placenta. FPRL 280; solution conc. 0.51% w/w): 14.6%
- Mass loss, Mean (Poria placenta. FPRL 280; solution conc. 0.51% w/w): 14.8%
- Corrected mass loss (Poria placenta. FPRL 280; solution conc. 0.51% w/w): 14.0% and 17.1% and 14.2% and 13.3%
- Mass loss (Poria placenta. FPRL 280; solution conc. 0.51% w/w): 14.2% and 17.3% and 14.4% and 13.5%
- Corrected mass loss, Mean (Poria placenta. FPRL 280; solution conc. 0.72% w/w): 8.2%
- Mass loss, Mean (Poria placenta. FPRL 280; solution conc. 0.72% w/w): 7.8%
- Corrected mass loss (Poria placenta. FPRL 280; solution conc. 0.72% w/w): 9.2% and 9.0% and 6.3% and 8.2%
- Mass loss (Poria placenta. FPRL 280; solution conc. 0.72% w/w): 8.9% and 8.7% and 5.9% and 7.9%
- Corrected mass loss, Mean (Poria placenta. FPRL 280; solution conc. 1.01% w/w): 1.4%
- Mass loss, Mean (Poria placenta. FPRL 280; solution conc. 1.01% w/w): 1.0%
- Corrected mass loss (Poria placenta. FPRL 280; solution conc. 1.01% w/w): 2.5% and 0.1% and 1.3% and 1.9%
- Mass loss (Poria placenta. FPRL 280; solution conc. 1.01% w/w): 2.0% and −0.3% and 0.8% and 1.4%
- Corrected mass loss, Mean (Poria placenta. FPRL 280; solution conc. 1.43% w/w): 1.5%
- Mass loss, Mean (Poria placenta. FPRL 280; solution conc. 1.43% w/w): 0.4%
- Corrected mass loss (Poria placenta. FPRL 280; solution conc. 1.43% w/w): 0.5% and 4.1% and 0.7% and 0.6%
- Mass loss (Poria placenta. FPRL 280; solution conc. 1.43% w/w): −0.6% and 3.0% and −0.4% and −0.5%
- BSI (bacteria [6]; Polluted water + 0.5%): 48
- bacteria count (bacteria [6]; Polluted water + 0.5%): 56.2
- BSI (bacteria [6]; Tapwater + 0.5%): 56
- bacteria count (bacteria [6]; Tapwater + 0.5%): 7.35
- pH [7]: around 11.1
- Mean log reduction after 60 seconds (Vaccinia; 1.0% NBDA): 0.17
- Mean log reduction after 60 seconds (Vaccinia; 5.0% NBDA): 0.09
